Laboratory results as given in patent US9193729B2, “Inhibiting transient receptor potential ion channel TRPA1” (Cubist Pharmaceuticals, Inc., priority 2011, dated 2015).
pIC50: −log10 of the molar value. “Also recorded” adds a separate entry of the source.

Tests used:
rTRPA1 = rTRPA1 (Rattus norvegicus, UniProt Q6RI86); test: Whole-cell patch clamp inhibition of rTRPA1; format: cell-based; conditions: rTRPA1, 10 micromolar AITC activation; read-out: IC50 Inward current
Method: (§1) Data for TRPA1 inhibition and the selectivity of TRPA1 inhibition was obtained by this method for the compound of Formula (Ia) and included in Table 1 and Table 2. All currents were recorded in whole-cell configuration using EPC-9 and EPC-10 amplifiers and Patchmaster software (HEKA). […] The standard pipette solution consisted of 140 mM CsAsp, 10 mM EGTA, 10 mM HEPES, 2.27 mM MgCl2, 1.91 mM CaCl2, 4 mM MgATP, and 0.1-0.3 mM Na2GTP, with pH adjusted to 7.2 with CsOH. In addition, a solution containing 145 mM CsCl, 10 mM HEPES, 10 mM EGTA and 1 mM MgCl2 (pH 7.2 adjusted with CsOH) can be used. The standard bath solution contained 150 mM NaCl, 10 mM HEPES, 10 mM glucose, 4.5 mM KCl, 1 mM EGTA, 3 mM MgCl2, with pH adjusted to 7.4 with NaOH. In some instances, 2 mM CaCl2 was added in place of EGTA and the concentration of MgCl2 was reduced to 1 mM.
(§2) Data were collected either by continuous recordings at −60 mV or by applying voltage ramps from a holding potential of 0 mV every 4 s. […] Inward and outward currents were analyzed from the ramps at −80 and 80 mV, respectively. […]
(§3) Solutions were switched using a gravity-fed continuous focal perfusion system. […] Temperatures were confirmed using a thermistor (Warner Instruments, TA-29), with temperatures at the recorded cell estimated to be within +/−2° C. of those reported. […]

hNav1.2 = hNav1.2 (Homo sapiens, UniProt Q99250); test: Patch clamp selectivity, hNav1.2; format: cell-based; conditions: hNav1.2 vs TRPA1
Sequence of hNav1.2 (Q99250 whole entry): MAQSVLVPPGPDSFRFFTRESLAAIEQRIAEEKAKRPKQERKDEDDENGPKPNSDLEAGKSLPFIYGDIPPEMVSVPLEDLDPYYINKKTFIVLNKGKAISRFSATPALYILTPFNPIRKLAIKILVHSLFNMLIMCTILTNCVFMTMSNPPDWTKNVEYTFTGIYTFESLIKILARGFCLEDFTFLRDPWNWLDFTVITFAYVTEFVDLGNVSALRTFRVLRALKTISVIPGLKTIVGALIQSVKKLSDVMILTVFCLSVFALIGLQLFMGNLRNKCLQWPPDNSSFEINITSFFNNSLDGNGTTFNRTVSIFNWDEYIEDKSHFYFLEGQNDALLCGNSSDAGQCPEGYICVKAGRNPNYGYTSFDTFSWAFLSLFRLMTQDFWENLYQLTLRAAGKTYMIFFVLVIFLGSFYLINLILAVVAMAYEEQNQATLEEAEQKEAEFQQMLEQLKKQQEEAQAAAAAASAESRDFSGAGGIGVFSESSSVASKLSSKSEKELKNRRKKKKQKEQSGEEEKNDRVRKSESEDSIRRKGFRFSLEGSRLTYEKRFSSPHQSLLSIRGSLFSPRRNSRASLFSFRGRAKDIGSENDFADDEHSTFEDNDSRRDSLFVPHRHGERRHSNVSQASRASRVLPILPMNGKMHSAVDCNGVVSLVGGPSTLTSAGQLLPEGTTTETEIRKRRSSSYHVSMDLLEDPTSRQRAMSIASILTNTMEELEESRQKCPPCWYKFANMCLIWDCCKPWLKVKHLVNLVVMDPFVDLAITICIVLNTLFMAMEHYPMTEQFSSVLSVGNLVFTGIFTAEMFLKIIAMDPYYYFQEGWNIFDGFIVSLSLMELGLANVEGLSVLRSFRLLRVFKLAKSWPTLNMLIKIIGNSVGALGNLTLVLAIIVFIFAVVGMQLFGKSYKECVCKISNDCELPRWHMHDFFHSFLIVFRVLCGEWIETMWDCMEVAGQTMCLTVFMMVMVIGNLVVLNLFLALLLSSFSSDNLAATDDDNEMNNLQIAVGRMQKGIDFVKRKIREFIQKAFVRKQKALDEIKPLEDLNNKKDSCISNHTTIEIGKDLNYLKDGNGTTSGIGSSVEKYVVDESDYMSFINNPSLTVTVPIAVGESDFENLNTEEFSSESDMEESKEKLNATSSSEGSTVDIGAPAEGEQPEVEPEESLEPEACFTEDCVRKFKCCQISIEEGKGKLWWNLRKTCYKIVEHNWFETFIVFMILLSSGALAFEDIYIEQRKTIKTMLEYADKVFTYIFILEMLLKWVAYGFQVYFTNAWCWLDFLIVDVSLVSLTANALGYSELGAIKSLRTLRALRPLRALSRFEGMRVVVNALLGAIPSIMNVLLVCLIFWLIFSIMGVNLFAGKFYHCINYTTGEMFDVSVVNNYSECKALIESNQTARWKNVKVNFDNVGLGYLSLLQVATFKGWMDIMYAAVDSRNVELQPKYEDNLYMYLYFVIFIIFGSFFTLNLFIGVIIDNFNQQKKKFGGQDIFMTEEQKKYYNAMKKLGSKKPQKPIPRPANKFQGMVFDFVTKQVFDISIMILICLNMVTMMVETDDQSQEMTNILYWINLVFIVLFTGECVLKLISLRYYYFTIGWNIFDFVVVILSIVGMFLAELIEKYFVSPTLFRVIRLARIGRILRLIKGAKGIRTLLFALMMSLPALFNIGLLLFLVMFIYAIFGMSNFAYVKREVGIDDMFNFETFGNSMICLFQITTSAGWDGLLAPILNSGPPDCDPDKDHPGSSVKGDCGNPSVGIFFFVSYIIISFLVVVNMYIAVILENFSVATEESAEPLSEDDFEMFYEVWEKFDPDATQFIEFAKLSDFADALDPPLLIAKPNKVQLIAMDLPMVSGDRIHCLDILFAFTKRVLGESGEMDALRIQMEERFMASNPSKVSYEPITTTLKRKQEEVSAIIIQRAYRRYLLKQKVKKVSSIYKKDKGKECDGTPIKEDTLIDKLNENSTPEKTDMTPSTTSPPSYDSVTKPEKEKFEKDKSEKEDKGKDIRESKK
Method: as §1, §2, §3

[1] = system: incisional spontaneous pain; test: Surgical incision pain model (Brennan Surgical Model); format: in vivo, rat; conditions: 60 mg/kg i.p. vs ketoprofen (2 doses of 2 mg/kg intraperitoneally)
Method: The compound of Formula (Ia), the comparator compound of Formula (III) and ketoprofen were tested by the incisional pain test method reported in Brennan et al., Pain, 1996 March; 64(3):493-501 incorporated herein by reference in its entirety. Briefly, in rats under anesthesia, a 1 cm incision through skin and underlying muscle is made in the bottom of one hind paw. The incision is sutured closed and the animals allowed to regain consciousness in their home cage before being placed on a special mesh rack. The blinded observer subjectively assesses and records each animal's pain score every 5 minutes for 1 hour. Pain scores are assigned as follows: Score of 0=Injured paw is held flat on the rack and is bearing weight (=uninjured paw); 1=Injured paw is slightly lifted from the rack but is bearing some weight; 2=Injured paw is flat but is bearing no weight, or heel is lifted high off the rack with only toes touching. At the end of each hour, pain scores are added up and the final score recorded ([…]). In a typical study the efficacy of the drug treatment is determined by comparing the cumulative guarding scores at 1-2 and 3-4 hours following surgical injury to the cumulative guarding scores of animals that received the vehicle.

hTRPV3 = biological target: T1, hTRPV3 (Homo sapiens, UniProt Q8NET8); test: Patch clamp selectivity, hTRPV3; format: cell-based; conditions: hTRPV3 vs TRPA1
T1 sequence (Q8NET8 1-790): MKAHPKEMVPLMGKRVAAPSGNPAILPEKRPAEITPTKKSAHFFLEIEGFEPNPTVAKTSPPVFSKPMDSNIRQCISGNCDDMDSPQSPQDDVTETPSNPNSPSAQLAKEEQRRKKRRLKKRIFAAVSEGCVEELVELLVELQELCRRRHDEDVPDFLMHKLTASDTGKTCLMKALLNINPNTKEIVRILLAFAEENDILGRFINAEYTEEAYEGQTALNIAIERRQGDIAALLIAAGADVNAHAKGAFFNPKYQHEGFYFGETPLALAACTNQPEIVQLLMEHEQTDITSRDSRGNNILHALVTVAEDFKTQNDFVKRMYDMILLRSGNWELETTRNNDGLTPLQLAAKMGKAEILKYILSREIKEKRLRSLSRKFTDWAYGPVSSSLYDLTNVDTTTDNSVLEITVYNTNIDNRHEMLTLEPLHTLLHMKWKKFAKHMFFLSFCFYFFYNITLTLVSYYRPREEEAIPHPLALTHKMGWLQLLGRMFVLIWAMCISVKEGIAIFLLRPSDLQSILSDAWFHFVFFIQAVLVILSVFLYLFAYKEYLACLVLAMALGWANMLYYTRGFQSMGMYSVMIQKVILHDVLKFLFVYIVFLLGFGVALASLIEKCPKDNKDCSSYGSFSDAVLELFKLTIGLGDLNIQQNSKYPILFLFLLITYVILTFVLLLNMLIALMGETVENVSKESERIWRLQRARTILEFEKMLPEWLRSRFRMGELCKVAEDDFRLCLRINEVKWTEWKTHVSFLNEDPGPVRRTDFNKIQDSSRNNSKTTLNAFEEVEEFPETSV
Method: as §1, §2, §3

Sequence of rTRPA1 (Q6RI86 whole entry): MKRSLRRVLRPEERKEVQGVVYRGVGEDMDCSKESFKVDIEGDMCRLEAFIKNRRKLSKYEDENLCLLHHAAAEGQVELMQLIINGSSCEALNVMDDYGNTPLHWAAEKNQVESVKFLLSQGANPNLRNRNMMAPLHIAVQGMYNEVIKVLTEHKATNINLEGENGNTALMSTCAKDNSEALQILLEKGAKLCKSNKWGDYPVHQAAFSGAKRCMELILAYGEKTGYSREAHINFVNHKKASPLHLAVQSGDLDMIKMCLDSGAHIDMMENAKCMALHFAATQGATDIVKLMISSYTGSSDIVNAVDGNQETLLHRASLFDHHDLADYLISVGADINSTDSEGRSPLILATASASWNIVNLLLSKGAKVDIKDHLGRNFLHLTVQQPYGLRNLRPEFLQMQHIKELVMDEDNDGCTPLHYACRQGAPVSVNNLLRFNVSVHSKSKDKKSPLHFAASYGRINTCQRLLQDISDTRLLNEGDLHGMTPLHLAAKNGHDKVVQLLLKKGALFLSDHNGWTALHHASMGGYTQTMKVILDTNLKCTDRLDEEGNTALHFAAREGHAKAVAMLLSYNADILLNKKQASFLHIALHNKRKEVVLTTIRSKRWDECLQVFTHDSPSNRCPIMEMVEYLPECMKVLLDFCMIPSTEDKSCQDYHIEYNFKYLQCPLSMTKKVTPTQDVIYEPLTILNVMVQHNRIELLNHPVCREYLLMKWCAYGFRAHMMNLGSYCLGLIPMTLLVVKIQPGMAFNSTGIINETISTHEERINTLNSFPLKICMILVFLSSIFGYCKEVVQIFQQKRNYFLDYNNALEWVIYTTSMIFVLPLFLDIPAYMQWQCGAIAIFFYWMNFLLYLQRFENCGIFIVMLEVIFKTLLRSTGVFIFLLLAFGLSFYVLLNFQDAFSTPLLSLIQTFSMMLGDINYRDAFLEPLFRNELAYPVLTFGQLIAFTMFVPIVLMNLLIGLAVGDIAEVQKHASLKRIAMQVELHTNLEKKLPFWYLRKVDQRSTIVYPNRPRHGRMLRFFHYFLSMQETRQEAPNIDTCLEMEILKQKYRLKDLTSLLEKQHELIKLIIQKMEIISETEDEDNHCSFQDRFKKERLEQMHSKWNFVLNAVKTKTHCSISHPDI

C[C@H]1CCCN1c1ncc(-c2cccc(NC(=O)Cn3cnc4c3c(=O)n(C)c(=O)n4C)n2)cn1 [Formula (Ia)]
pIC50 (rTRPA1): ~7.00 | Fold Selectivity Compared to TRPA1 (hNav1.2): >100 Fold | reduction of spontaneous pain compared with ketoprofen [1]: equivalent to ketoprofen; also recorded: better than ketoprofen | Fold Selectivity Compared to TRPA1 (hTRPV3): >300 Fold
